The test system of data set [1] is cytochrome P450s in the liver and kidneys. Also on record: method as in PMID 16019806. The conditions noted are these: likely through binding to the heme in the active site; cited from earlier work.
Data set [2] concerns the target T1, OxaD (Penicillium oxalicum, UniProt A0A1B2TT15). The experiment in a line: Oxygen consumption assay, steady-state kinetics. The conditions noted are these: OxaD 1 μM; pH 7.6, 1% DMSO; roquefortine C fixed 100 μM for cosubstrates; NADPH fixed 500 μM when roquefortine C varied.
Protocol: All oxygen consumption assays were performed using an Oxygraph+ system from Hansatech Instruments (Norfolk, U.K.). Assays were performed in 25 mM HEPES/Na^+ buffer, pH 7.6, 50 mM NaCl, 1% DMSO (750 μL total volume).
For another data set, the system named is mice. Also on record: method as in ref 11−14. The conditions noted are these: mice exposed to roquefortine C; ref 11−14; cited from earlier work.
The target in data set [3] is T1, OxaD. Conditions: for kred2: slow phase.
Protocol: To remove oxygen from the enzyme sample, OxaD (or D63A) was degassed along with buffer solutions as previously described. The stopped-flow was incubated with an anaerobic solution of 0.6 μM glucose oxidase and 100 mM D-glucose in 100 mM sodium acetate, pH 5.0, overnight to remove any oxygen.[27] […] For all stopped-flow experiments, the concentrations listed are after mixing in the instrument. […] Absorbance changes between 200 and 800 nm were recorded. The decrease in absorbance at 446 nm was fit to eq 2 to obtain the observed rate constant of the fast phase (k1) and of the slow phase (k2). A446 is the absorbance at 446 nm, A is the amplitude of the phase, t is time, and C is the final absorbance at 446 nm. […] Oxygenated buffer was prepared by bubbling 30 cc/min (pressure regulated by a flowmeter) of 100% oxygen into the OxaD activity buffer on an ice bath for 1 h while stirring. The resulting oxygen solution has a concentration of 1.2 mM.[27] Oxidation of reduced OxaD or D63A was investigated at various concentrations of oxygen (100–600 μM) at room temperature. To obtain lower oxygen concentrations, the saturated oxygen solution was diluted with anaerobic buffer. Absorbance changes at 200–800 nm were recorded. Absorbance changes at 365 nm were fit to eq 4 to account for the absorbance increase and decrease. In eq 4, A365 is the absorbance values at 365 nm, A1 and A2 are the changes in absorbance related to a single phase, k1 is the rate of absorbance increase, and k2 is the rate of absorbance decrease. Absorbance increases at 446 nm were fit to eq 5, where A446 is the absorbance values at 446 nm, kobs is the observed rate and AΔ is the change in absorbance. In both eq 4 and eq 5, A0 is the initial absorbance and t is time. The bimolecular rate constant was determined using a linear equation. All data fitting was carried out with KaleidaGraph. Spectral deconvolution was carried out using a three-step model that accounted for the reduced enzyme–substrate complex, the enzyme-intermediate complex, and the final oxidized enzyme.
Data set [4] concerns OxaD D63A. The conditions noted are these: D63A vs OxaD.
Protocol: (§2) OxaD D63A (D63A from hereon) was expressed and purified using the same procedures as those described for OxaD.
(§3) All oxygen consumption assays were performed using an Oxygraph+ system from Hansatech Instruments (Norfolk, U.K.). Assays were performed in 25 mM HEPES/Na^+ buffer, pH 7.6, 50 mM NaCl, 1% DMSO (750 μL total volume). […] Equation 1 was used to determine the turnover number (kcat) and Michaelis–Menten constant (KM).
Data set [5] concerns the target T2, OxaD D63A (Penicillium oxalicum, UniProt A0A1B2TT15, D63A).
Protocol: as §2, §3
The target in another data set is T3, oxidized D63A (Penicillium oxalicum, UniProt A0A1B2TT15, D63A).
T3 sequence (A0A1B2TT15 1-467 D63A): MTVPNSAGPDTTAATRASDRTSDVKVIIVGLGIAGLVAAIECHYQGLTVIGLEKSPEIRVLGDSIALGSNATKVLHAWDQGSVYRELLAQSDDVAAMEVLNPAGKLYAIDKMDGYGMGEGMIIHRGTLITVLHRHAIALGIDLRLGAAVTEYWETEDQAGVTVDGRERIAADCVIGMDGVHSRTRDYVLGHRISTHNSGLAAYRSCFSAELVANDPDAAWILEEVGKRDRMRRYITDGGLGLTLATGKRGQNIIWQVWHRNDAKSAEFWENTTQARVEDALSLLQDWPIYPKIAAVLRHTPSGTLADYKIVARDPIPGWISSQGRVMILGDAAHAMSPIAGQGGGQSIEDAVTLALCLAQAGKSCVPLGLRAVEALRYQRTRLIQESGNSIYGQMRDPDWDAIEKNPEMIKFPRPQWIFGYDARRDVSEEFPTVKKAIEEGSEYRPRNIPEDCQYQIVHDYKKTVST
The data set is classed as binding, Penicillium oxalicum F30. Conditions: 15 μM oxidized D63A, roquefortine C 0–40 μM, pH 7.6; read-out: apparent KD. How it is done:
(§1) These methods were adapted from Abdelwahab et al., 2016.[29] […] The instrument was blanked with each concentration of roquefortine C prior to recording the enzyme–substrate complex spectra. Each solution was 200 μL and contained 15 μM of enzyme, and various roquefortine C concentrations (0–40 μM). Prior to recording the spectra, the enzyme was incubated on ice for 5 min with the substrate and the spectra were measured immediately following the incubation.

For another data set, the target named is T4, oxidized OxaD (Penicillium oxalicum, UniProt A0A1B2TT15).
T4 sequence (A0A1B2TT15 1-467): T3 sequence (A0A1B2TT15 1-467 D63A)
The class given is binding, Penicillium oxalicum F30. Conditions: 15 μM oxidized OxaD, roquefortine C 0–40 μM, pH 7.6; read-out: apparent KD. How it is done: as §1

Data set [6] deals with T1, OxaD. Also on record: method as in PMID 27505044. The conditions noted are these: previous characterization; cited from earlier work.
For data set [7], the target named is T2, OxaD D63A. The experiment in a line: Anaerobic stopped-flow, reductive-half reaction, D63A mutant. The class given is biochemical, Penicillium oxalicum F30. Conditions: for kred2: slow phase.
On the set-up of data set [8]: method as in ref 18−20. Conditions: ref 18−20; cited from earlier work.
Data set [9] concerns human breast and leukemia cancer cell lines. Also on record: method as in ref 18−20. Conditions: ref 18−20; cited from earlier work.
For data set [10], the system named is OxaD D63A. In words: Anaerobic stopped-flow, reductive-half reaction, D63A mutant. The data set is classed as biochemical, Penicillium oxalicum F30. Conditions: D63A vs OxaD.
[11] abbreviates: OxaD 10 μM, 10 μM roquefortine C, fast phase, apparent.
Setting [12] is: OxaD 10 μM, 10 μM roquefortine C.
Setting [13] is: D63A 10 μM, 10 μM roquefortine C, fast phase.
Setting [14] is: D63A 10 μM, 10 μM roquefortine C.

Several values for one entry are separate records, joined by “and”; a condition that tells them apart may be missing. Equal values may be shown once. Read-outs that look alike come from different tables or passages of the source.

Usually Km stands for the concentration of substrate that gives half-maximal velocity. Consider `C=CC(C)(C)[C@@]12C[C@H]3C(=O)N/C(=C/c4c[nH]cn4)C(=O)N3[C@@H]1Nc1ccccc12` [Roquefortine C], for which the “effect on cytochrome P450s” value in data set [1] is “deactivate cytochrome P450s in the liver and kidneys”. Besides, the Km on OxaD [2] was 3 ± 1 µM; at OxaD D63A [5] (pH 7.6) it was 3.5 ± 0.9 µM; at OxaD [6], 0.071 µM. The kcat was 0.93 ± 0.07 s^–1 at OxaD [2] and 0.017 s^–1 at OxaD [6]. In addition, the “toxic effects in mice” value in the data set on mice is “cytotoxic, immunotoxic, neurotoxic, and lung inflammatory effects”. Besides, the “enhancement of kred by presence of roquefortine C” value at OxaD [3] (OxaD, with vs without roquefortine C) is listed as 120 fold. In addition, in the data set on OxaD D63A [4] (oxygen consumption), the “increase in kcat compared to OxaD” value was around 2 fold. The Kd is 6.4 ± 0.2 µM at oxidized D63A; 6.9 µM and ~6.9 µM on oxidized OxaD. Besides, the “enhancement of kred in the presence of substrate” value at OxaD D63A [7] (D63A, with vs without substrate) was around 50 fold.

`C=CC(C)(C)[C@]12C=C(O)C(=O)N3/C(=C/c4cnc[nH]4)C(=O)N[C@@]31N(O)c1ccccc12` [glandicoline B]: the antibacterial effects result in data set [8] was “antibacterial effects”.

Turning to `C=CC(C)(C)[C@]12C=C(OC)C(=O)N3/C(=C/c4c[nH]cn4)C(=O)N[C@@]31N(OC)c1ccccc12` [oxaline], the antibacterial effects entry in data set [8] is “antibacterial effects”. In data set [9], the anticancer properties entry was “anticancer properties”.

With (R)-[4-^2H]-NADPH, the kred1 turned out to be 9.1 ± 0.10 s^–1 at OxaD [3] (setting [11]) and 2.4 ± 0.08 s^–1 on OxaD D63A [7] (setting [13]). For the same compound, the values for the kred2 at OxaD [3] (setting [12]) and at OxaD D63A [7] (setting [14]) were 0.24 ± 0.05 s^–1 and 0.17 ± 0.01 s^–1, respectively. Further, on OxaD D63A [5] (D63A, synthesized NADPH vs (R)-[4-^2H]-NADPH), the “^Dkcat (kinetic isotope effect on kcat)” value was “^Dkcat = 3.40 ± 0.38”. Moreover, the “^Dkred (kinetic isotope effect on rate of reduction)” value on OxaD D63A [7] (D63A, 4 mM synthesized NADPH vs 4 mM (R)-[4-^2H]-NADPH) was “^Dkred = 3.60 ± 0.13”.

In the case of Melegranin, the anticancer properties result in data set [9] is listed as “anticancer properties”.

As to NADH, the kred1 on OxaD [3] (setting [11]) stood at 43 ± 0.30 s^–1. The same compound displayed a kred2 at OxaD [3] (setting [12]) of 0.34 ± 0.01 s^–1. Further, at OxaD [3] (OxaD, NADH vs NADPH), the “increase in KD(app) relative to NADPH” value is around 3 fold.

As for NADPH, the kred1 at OxaD [3] (setting [11]) was determined as 48 ± 0.80 s^–1; at OxaD [3] (OxaD, No roquefortine C), 0.40 ± 0.10 s^–1; on OxaD D63A [7] (setting [13]) it was 9.0 ± 0.20 s^–1; on OxaD D63A [7] (D63A, No roquefortine C) it was 0.17 ± 0.01 s^–1. Further, the kred2 at OxaD [3] (setting [12]) is 0.39 ± 0.01 s^–1; on OxaD D63A [7] (setting [14]), 0.18 ± 0.01 s^–1. For the same compound, the “kred1/KD(app)” value at OxaD [3] (OxaD, 10 μM roquefortine C) is 9.0 × 10^4 ± 2.0 × 10^3 M^–1·s^–1; at OxaD D63A [7] (D63A, 10 μM roquefortine C), 7.2 × 10^3 ± 1.4 × 10^3 M^–1·s^–1. The “increase in KM compared to OxaD” value in the data set with OxaD D63A [4] was found to be 25 fold. Moreover, the “decrease in kred compared to OxaD” value with OxaD D63A [10] is around 5 fold.

Turning to NADPH [Synthesized NADPH], the kred1 on OxaD [3] (setting [11]) is on record as 45 ± 0.70 s^–1; on OxaD D63A [7] (setting [13]), 8.6 ± 0.14 s^–1. The kred2 came out at 0.32 ± 0.02 s^–1 at OxaD [3] (setting [12]) and 0.20 ± 0.04 s^–1 on OxaD D63A [7] (setting [14]).

Source of the values: paper PMC11154958, “Mechanism of Nitrone Formation by a Flavin-Dependent Monooxygenase” (Biochemistry, 2024).
